Source: patent US8895547B2, “Substituted phenyl-oxathiazine derivatives, method for producing them, drugs containing said compounds and the use thereof” (Sanofi, priority 2011, dated 2014)

molecular target: T1, human 11β-HSD1 (Homo sapiens, UniProt P28845); assay: Enzymatic 11beta-HSD1 test (SPA-based detection); type: biochemical; conditions: human 11β-HSD1 microsome fraction, [1,2-3H]-cortisone, NADPH, 37° C. 1 hour
T1 construct: host or cells: microsome fraction
How it was run: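 Human 11β-HSD1 microsomes (0.2 µg protein) converted [1,2-3H]-cortisone ([…]) for 1 h at 37 °C. The reaction buffer was HEPES/KCl/NaCl/MgCl2 with 0.25 mM NADPH, with compounds added in DMSO. The reaction was stopped with SPA beads, anti-cortisol monoclonal antibody and 0.01 mM SSR110887; after 1 h at room temperature, [3H]-cortisol was scintillation-counted.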

T1 sequence (P28845 whole entry): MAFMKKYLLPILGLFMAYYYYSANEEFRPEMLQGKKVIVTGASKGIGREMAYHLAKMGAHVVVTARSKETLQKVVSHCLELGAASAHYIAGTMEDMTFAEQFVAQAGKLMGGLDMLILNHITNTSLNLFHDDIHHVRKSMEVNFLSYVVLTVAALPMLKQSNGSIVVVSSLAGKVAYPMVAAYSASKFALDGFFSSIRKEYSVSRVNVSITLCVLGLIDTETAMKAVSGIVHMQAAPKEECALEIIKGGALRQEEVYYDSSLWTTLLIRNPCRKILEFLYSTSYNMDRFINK

First: COc1ccc(-c2ccc(C3C(C)(C)OC(N[C@@H](CCO)c4ccccc4F)=NS3(=O)=O)cc2)cc1 (stereo partly drawn) [Example 66, (S)-3-(2-Fluorophenyl)-3-[5-(4′-methoxy-biphenyl-4-yl)-6,6-dimethyl-4,4-dioxo-5,6-dihydro-4H-4lambda6-[1,4,3]oxathiazin-2-ylamino]-propan-1-ol]
Second: COc1cccc(-c2ccc(C3C(C)(C)OC(N[C@@H](CCO)c4ccccc4F)=NS3(=O)=O)cc2)c1 (some centres unmarked) [Example 86]
The IC50 of the first is 2.3-fold higher: 23 nM for the first, 10 nM for the second. The second is the more potent here.

First: CC1(C)OC(N[C@@H](CCO)c2ccccc2F)=NS(=O)(=O)C1c1cccc(-c2ccccc2)c1 (stereo partly drawn) [Example 67, (S)-3-(5-Biphenyl-3-yl-6,6-dimethyl-4,4-dioxo-5,6-dihydro-4H-4lambda6-[1,4,3]oxathiazin-2-ylamino)-3-(2-fluorophenyl)-propan-1-ol]
Second: C[C@H](NC1=NS(=O)(=O)C(c2cccc(-c3ccccc3)c2)C(C)(C)O1)c1ccccc1F (stereo partly drawn) [Example 68, (5-Biphenyl-3-yl-6,6-dimethyl-4,4-dioxo-5,6-dihydro-4H-4lambda6-[1,4,3]oxathiazin-2-yl)-[(S)-1-(2-fluorophenyl)-ethyl]-amine]
The IC50 of the first is 2.3-fold lower: 15 nM for the first, 34 nM for the second.

Compared with `CC1(C)OC(N[C@@H](CCO)c2ccccc2F)=NS(=O)(=O)C1(C)c1cccc(-c2ccc(F)cc2)c1` (stereo partly drawn) [Example 71, (S)-3-[5-(4′-Fluorobiphenyl-3-yl)-5,6,6-trimethyl-4,4-dioxo-5,6-dihydro-4H-4lambda6-[1,4,3]oxathiazin-2-ylamino]-3-(2-fluorophenyl)-propan-1-ol], `CC1(C)OC(N[C@@H](CCO)c2ccccc2F)=NS(=O)(=O)C1(C)c1ccc(-c2ccc(F)cc2)cc1` (stereo partly drawn) [Example 80, (S)-3-[5-(4′-Fluorobiphenyl-4-yl)-5,6,6-trimethyl-4,4-dioxo-5,6-dihydro-4H-4lambda6-[1,4,3]oxathiazin-2-ylamino]-3-(2-fluorophenyl)-propan-1-ol] is 3.1-fold lower in IC50: 22 nM for the first, 7 nM for the second.

First: CC1(C)OC(N[C@@H](CCO)c2ccccc2)=NS(=O)(=O)C1(C)c1cccc(-c2ccccc2)c1 (stereo partly drawn) [Example 72, (S)-3-(5-Biphenyl-3-yl-5,6,6-trimethyl-4,4-dioxo-5,6-dihydro-4H-4lambda6-[1,4,3]oxathiazin-2-ylamino)-3-phenyl-propan-1-ol]
Second: C[C@H](NC1=NS(=O)(=O)C(C)(c2cccc(-c3ccccc3)c2)C(C)(C)O1)c1ccccc1F (stereo partly drawn) [Example 73, (5-Biphenyl-3-yl-5,6,6-trimethyl-4,4-dioxo-5,6-dihydro-4H-4lambda6-[1,4,3]oxathiazin-2-yl)-[(S)-1-(2-fluorophenyl)-ethyl]-amine]
The IC50 of the first is 1.6-fold higher: 46 nM for the first, 28 nM for the second.

First: O=S1(=O)N=C(N[C@@H](CCO)c2ccccc2F)OC2(COC2)C1c1ccc(-c2ccccc2)cc1 (stereo partly drawn) [Example 76, (S)-3-(9-Biphenyl-4-yl-8,8-dioxo-2,5-dioxa-8lambda6-thia-7-aza-spiro[3.5]non-6-en-6-ylamino)-3-(2-fluorophenyl)-propan-1-ol]
Second: O=S1(=O)N=C(N[C@@H](CCO)c2ccccc2F)OC2(CCC2)C1c1ccc(-c2ccccc2)cc1 (stereo partly drawn) [Example 77, (S)-3-(9-Biphenyl-4-yl-8,8-dioxo-5-oxa-8lambda6-thia-7-aza-spiro[3.5]non-6-en-6-ylamino)-3-(2-fluorophenyl)-propan-1-ol]
The IC50 of the first is 13-fold higher: 332 nM for the first, 26 nM for the second.

Compared with `O=S1(=O)N=C(N[C@@H](CCO)c2ccccc2F)OC2(CCCC2)C1c1ccc(-c2ccccc2)cc1` (stereo partly drawn) [Example 78, (S)-3-(10-Biphenyl-4-yl-9,9-dioxo-6-oxa-9lambda6-thia-8-aza-spiro[4.5]dec-7-en-7-ylamino)-3-(2-fluorophenyl)-propan-1-ol], `CC1(C)OC(N[C@@H](CCO)c2ccccc2Cl)=NS(=O)(=O)C1c1ccc(-c2ccccc2)cc1` (stereo partly drawn) [Example 83, (S)-3-(5-Biphenyl-4-yl-6,6-dimethyl-4,4-dioxo-5,6-dihydro-4H-4lambda6-[1,4,3]oxathiazin-2-ylamino)-3-(2-chloro-phenyl)-propan-1-ol] is 2.1-fold lower in IC50: 35 nM for the first, 17 nM for the second.

`Cc1ccccc1-c1ccc(C2(C)C(C)(C)OC(N[C@@H](CCO)c3ccccc3F)=NS2(=O)=O)cc1` (stereo partly drawn) [Example 79, (S)-3-(2-Fluorophenyl)-3-[5,6,6-trimethyl-5-(2′-methyl-biphenyl-4-yl)-4,4-dioxo-5,6-dihydro-4H-4lambda6-[1,4,3]oxathiazin-2-ylamino]-propan-1-ol] and `COc1ccc(-c2ccc(C3(C)C(C)(C)OC(N[C@@H](CCO)c4ccccc4F)=NS3(=O)=O)cc2)cc1` (stereo partly drawn) [Example 81, (S)-3-(2-Fluorophenyl)-3-[5-(4′-methoxy-biphenyl-4-yl)-5,6,6-trimethyl-4,4-dioxo-5,6-dihydro-4H-4lambda6-[1,4,3]oxathiazin-2-ylamino]-propan-1-ol] are within 1.5-fold of each other in IC50: 8 nM for the first, 10 nM for the second.

First: CC1(C)OC(NC(CCO)c2cccc(F)c2F)=NS(=O)(=O)C1c1ccc(-c2ccccc2)cc1 (centres unmarked) [Example 82, 3-(5-Biphenyl-4-yl-6,6-dimethyl-4,4-dioxo-5,6-dihydro-4H-4lambda6-[1,4,3]oxathiazin-2-ylamino)-3-(2,3-difluorophenyl)-propan-1-ol]
Second: CC1(C)OC(N[C@@H](CCO)c2ccccc2F)=NS(=O)(=O)C1c1ccc(-c2cccc(C#N)c2)cc1 (some centres unmarked) [Example 93]
The IC50 of the first is 3.8-fold higher: 23 nM for the first, 6 nM for the second. The second is the more potent here.

Compared with `CC1(C)OC(N[C@@H](CCO)c2ccccc2F)=NS(=O)(=O)C1c1ccc(-c2ccccc2C#N)cc1` (some centres unmarked) [Example 87], `COc1ccccc1-c1ccc(C2C(C)(C)OC(N[C@@H](CCO)c3ccccc3F)=NS2(=O)=O)cc1` (stereo partly drawn) [Example 94, (S)-3-(2-Fluorophenyl)-3-[5-(2′-methoxy-biphenyl-4-yl)-6,6-dimethyl-4,4-dioxo-5,6-dihydro-4H-4lambda6-[1,4,3]oxathiazin-2-ylamino]-propan-1-ol] is 2-fold higher in IC50: 7 nM for the first, 14 nM for the second. The first is the more potent here.

Going from `CC1(C)OC(N[C@@H](CCO)c2ccc(Cl)cc2)=NS(=O)(=O)C1c1ccc(-c2ccccc2)cc1` (stereo partly drawn) [Example 88, (S)-3-(5-Biphenyl-4-yl-6,6-dimethyl-4,4-dioxo-5,6-dihydro-4H-4lambda6-[1,4,3]oxathiazin-2-ylamino)-3-(4-chloro-phenyl)-propan-1-ol] to `CC1(C)OC(N[C@@H](CCO)c2cccc(Cl)c2)=NS(=O)(=O)C1c1ccc(-c2ccccc2)cc1` (stereo partly drawn) [Example 89, (S)-3-(5-Biphenyl-4-yl-6,6-dimethyl-4,4-dioxo-5,6-dihydro-4H-4lambda6-[1,4,3]oxathiazin-2-ylamino)-3-(3-chloro-phenyl)-propan-1-ol], the IC50 falls from 198 nM to 21 nM (9.4-fold).

Compared with `CC1(C)OC(N[C@@H](CCO)c2ccccc2F)=NS(=O)(=O)C1c1ccc(-c2cncnc2)cc1` (stereo partly drawn) [Example 90, (S)-3-[6,6-Dimethyl-4,4-dioxo-5-(4-pyrimidin-5-yl-phenyl)-5,6-dihydro-4H-4lambda6-[1,4,3]oxathiazin-2-ylamino]-3-(2-fluorophenyl)-propan-1-ol], `CC1(C)OC(N[C@@H](CCO)c2ccccc2F)=NS(=O)(=O)C1c1ccc(-c2ccc(Cl)s2)cc1` (stereo partly drawn) [Example 91, (S)-3-{5-[4-(5-Chlorothiophen-2-yl)-phenyl]-6,6-dimethyl-4,4-dioxo-5,6-dihydro-4H-4lambda6-[1,4,3]oxathiazin-2-ylamino}-3-(2-fluorophenyl)-propan-1-ol] is 1.6-fold higher in IC50: 7 nM for the first, 11 nM for the second. The first is the more potent here.

With `CC1(C)OC(N[C@@H](CCO)c2ccccc2F)=NS(=O)(=O)C1c1ccc(-c2cc(Cl)sc2Cl)cc1` (stereo partly drawn) [Example 92, (S)-3-{5-[4-(2,5-Dichlorothiophen-3-yl)-phenyl]-6,6-dimethyl-4,4-dioxo-5,6-dihydro-4H-4lambda6-[1,4,3]oxathiazin-2-ylamino}-3-(2-fluorophenyl)-propan-1-ol] the IC50 was 23 nM.
